Source: PubChem BioAssay AID463203 (Broad Institute, 2010)
Calls of active or inactive are those of the source.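 How the source made its calls: active means more than half of replicate measurements showing over 20% loss of kinase signal relative to plate controls; inconclusive means some but at most half of replicates over 20% loss; inactive means no replicate over 20% signal loss.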

molecular target: Glycogen synthase kinase-3 alpha (Homo sapiens) (UniProt P49840); assay: concentration-response blocking of human GSK3A – biochemical, luminescence, cell-free homogeneous, retest, dose response (AID 463203); conditions: GSK-3 alpha enzyme, ADP-Glo luminescence, 60 min
Sequence (P49840 whole entry, looked up): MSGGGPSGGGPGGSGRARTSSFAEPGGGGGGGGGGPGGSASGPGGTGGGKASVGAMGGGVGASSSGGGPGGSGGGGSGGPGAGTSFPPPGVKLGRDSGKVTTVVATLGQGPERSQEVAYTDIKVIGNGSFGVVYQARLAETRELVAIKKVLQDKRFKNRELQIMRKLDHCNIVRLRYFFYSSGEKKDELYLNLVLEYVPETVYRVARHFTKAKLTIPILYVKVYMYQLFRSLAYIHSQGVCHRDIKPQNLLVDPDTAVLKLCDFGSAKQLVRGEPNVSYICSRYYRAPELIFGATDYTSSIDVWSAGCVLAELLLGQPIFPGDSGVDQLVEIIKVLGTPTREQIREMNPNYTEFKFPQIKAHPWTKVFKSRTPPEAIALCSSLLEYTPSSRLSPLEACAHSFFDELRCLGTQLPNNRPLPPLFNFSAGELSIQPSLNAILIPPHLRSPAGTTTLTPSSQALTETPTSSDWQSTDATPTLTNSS

Compound	AC50
C=CCNC(=S)N/N=C(\C)c1ccc(OC)cc1	> 30 µM (inactive)
Cc1nc(SCCC(C)C)c([N+](=O)[O-])[nH]1	> 30 µM (inactive)
CCOC(=O)c1sc(NC(=O)C2CC2)nc1C	15 µM
COc1cc(C2C(C#N)=C(N)Oc3n[nH]c(-c4cccs4)c32)cc(OC)c1O (configuration not stated)	> 30 µM (inactive)
O=C1CC(c2cccs2)CC2=C1C(c1ccccc1)n1ncnc1N2 (configuration not stated)	> 30 µM (inactive)
CCOc1cccc(-c2c(C(=O)N/N=C/c3cccnc3)nnn2-c2nonc2N)c1	4.67 µM
CC(C(=O)Nc1nccs1)c1ccc([N+](=O)[O-])cc1 (configuration not stated)	20.5 µM
CC(=O)Nc1ccc(NC(=O)CSc2nnc(-c3ccc4c(c3)OCO4)o2)cc1	2.61 µM
COc1ccc(Nc2nc(-c3cc4cccc(OC)c4oc3=O)cs2)cc1	> 30 µM (inactive)
Cc1ccc(C(=O)Nc2cccc(-c3cnc4ccccc4n3)c2)cc1	> 30 µM (inactive)
Cc1cc(C(C#N)c2cccc(Cl)c2)n2ncnc2n1 (configuration not stated)	5.78 µM
CCc1nnc(NC(=O)CCN2C(=O)c3ccccc3C2=O)s1	> 30 µM (inactive)
CCN1/C(=C/C=C/c2sc3ccccc3[n+]2CC)Sc2ccccc21	24.6 µM
CN(C)c1ccc(/C=N/NC(=O)c2nnn(-c3nonc3N)c2CN(C)c2ccccc2)cc1	> 30 µM (inactive)
COc1ccc(-c2cc(C(=O)N3CCN(c4ccccc4OC)CC3)no2)cc1	> 30 µM (inactive)
CC1=CC(=C2C(=O)c3ccccc3C2=O)C=C(C)N1Cc1ccco1	> 30 µM (inactive)
COc1cc(/C=N/c2oc(C)c(C)c2C#N)cc(Br)c1O	> 30 µM (inactive)
Fc1ccccc1N1CCN(CCCNc2ccc3nncn3n2)CC1	> 30 µM (inactive)
CC(=O)Nc1cccc(-c2csc(Nc3ccccn3)n2)c1	> 30 µM (inactive)
COc1cc(C2C(C#N)=C(N)Oc3n[nH]c(-c4cccnc4)c32)ccc1OCC(N)=O (configuration not stated)	> 30 µM (inactive)
CCOc1ccc(S(=O)(=O)Nc2cccc(C(=O)NCCCn3ccnc3)c2)cc1	> 30 µM (inactive)
O=C1OCCC/C1=C\c1ccc2c(c1)OCO2	23.3 µM
Cc1ccc(C(=O)N/N=c2\oc3ccccc3cc2C(N)=O)cc1	> 30 µM (inactive)
Cc1ccc2oc(=O)c3cnn(CC(=O)N4CCCCC4C)c3c2c1 (configuration not stated)	> 30 µM (inactive)
Cc1nc2ccc(-c3ccccc3)cc2o1	> 30 µM (inactive)
COc1cccc(C2CC(=O)Nc3cc(OC)c(OC)c(OC)c32)c1OC (configuration not stated)	> 30 µM (inactive)

Compound	AC50
O=C(Nc1cccc(Cl)c1N1CCCC1)c1ccc(Br)o1	> 30 µM (inactive)
CCC(=NCCO)c1c(O)n(C2CCCCC2)c(=O)[nH]c1=O	19.4 µM
O=C(Nc1cc(F)cc(F)c1)c1ccc(NCCCN2CCCCCC2)c([N+](=O)[O-])c1	> 30 µM (inactive)
COc1ccc(CC(=O)Oc2ccc(C)cc2C)cc1	> 30 µM (inactive)
CC(=O)Oc1ccc2ccc(=O)oc2c1	> 30 µM (inactive)
Cc1ccc(-n2nnnc2CSc2nnc(-c3ccc(O)cc3)o2)cc1	5.51 µM
COc1cccc(C(=O)O/N=C(\N)c2ccccn2)c1	16.8 µM
CCOC(=O)c1cc(-c2ccc(C)cc2)n(CCC(=O)NC(C)CC)c1C (configuration not stated)	> 30 µM (inactive)
COc1ccccc1Nc1nc(C)cc(C)n1	> 30 µM (inactive)
Cn1c(=O)c2c(-c3ccccc3)n(Cc3ccccn3)cc2n(C)c1=O	> 30 µM (inactive)
Nn1c(-c2ccc(O)cc2)nnc1-c1ccc(O)cc1	> 30 µM (inactive)
CCC(C)[C@H](NC(=O)Nc1ccc(S(N)(=O)=O)cc1)C(=O)O (some centres not stated)	> 30 µM (inactive)
COC(=O)c1c(NC(=O)CN2C(=O)NC3(CCCCC3C)C2=O)sc2c1CCC2 (configuration not stated)	> 30 µM (inactive)
CCc1c(C)c(C#N)c2nc3ccccc3n2c1NCC1CCCO1 (configuration not stated)	12.6 µM
Fc1cccc(/C=N/Nc2ccc3ccccc3n2)c1	> 30 µM (inactive)
COc1cc(C(=O)NCCC(=O)NCCN2CCOCC2)cc(OC)c1OC	> 30 µM (inactive)
COc1ccccc1N1C(=O)C2C(c3ccc(F)cc3)NN(C(=O)c3ccc(C)cc3)C2C1=O (configuration not stated)	> 30 µM (inactive)
Cc1cc(=O)[nH]c(SCC(=O)O)c1C#N	> 30 µM (inactive)
CC(=O)N1CCc2c(sc(NC(=O)c3cccc(N4C(=O)CCC4=O)c3)c2C(N)=O)C1	> 30 µM (inactive)
O=C(OCC1OC2OC3(CCCCC3)OC2C2OC3(CCCCC3)OC12)c1ccccc1 (configuration not stated)	> 30 µM (inactive)
CC1(c2ccccc2)CC(C)(C)N2C(=O)/C(=C3\SC(=S)NC3=O)c3cccc1c32 (configuration not stated)	> 30 µM (inactive)
COc1ccc(-c2cc(C(=O)N3CCN(c4ccccc4OC)CC3)no2)cc1OC	> 30 µM (inactive)
NC(=O)c1ccsc1NC(=O)C1CCCCC1	> 30 µM (inactive)
COc1ccc(CNC(=O)c2cc(COc3c(F)cccc3F)on2)cc1OC	> 30 µM (inactive)
O=C(Nc1ccc(Cl)cn1)c1cccc(S(=O)(=O)N2CCOCC2)c1	> 30 µM (inactive)
COc1ccc(OCc2nc(N)nc(Nc3ccccc3)n2)cc1	> 30 µM (inactive)
